Measurements published in publication PMC6554663, “Pharmaceutical Effects of Inhibiting the Soluble Epoxide Hydrolase in Canine Osteoarthritis” (Frontiers in Pharmacology, 2019).
Values after ≈ are worked out from the molar mass of the structure shown. Values joined by “and” are separate entries in the source; they are usually repeats but may differ in a detail not shown here. Equal entries are not always repeated. “Also recorded” adds a separate entry of the source. Where two headings read alike, the source gives them in different places.

Tests used:
[1] = Blood and synovial fluid concentrations in treated osteoarthritic dogs; format: in vivo, dog; settings: for Blood concentration D5 / Synovial fluid concentration D1 / Synovial fluid concentration D5: po, qd x 5, detected EC3039, individual dogs;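 for Synovial fluid concentration D1: synovial fluid also sampled on Day 1 after the pain assessment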
Method: (§1) Eight satellite dogs (2 per each group) had whole blood collected for PK analysis on study Days […]. On Day 1, blood was collected immediately prior to dosing, and again at 0.25, 0.5, 1, 2, 4, 6, and 8 (±5 min) after dosing. On Day 2 through 4, blood was collected 0.5 h (±5 min) after dosing. On Day 5 blood was collected immediately prior to dosing, and again at 0.25, 0.5, 1, 2, 4, 6, 8 (±5 min), 24, 48, and 72 h (±30 min) post treatment. […] For all blood samples, a minimum of 3 mL of whole blood was collected from a suitable vein as per written and approved standard operating procedures. The blood was transferred to K2EDTA (spray dried) blood tube and inverted gently multiple times to ensure proper mixing of the blood and anticoagulant. On study Day 5, synovial fluid was collected by arthrocentesis immediately after the subject completed the questionnaire (approximately […] after dosing). Subjects were anesthetized as per written and approved Standard Operating Procedures. A minimum of 0.1 mL of synovial fluid was collected from each subject. Samples were frozen in an upright position and stored at -80°C ± 4°C before being shipped to UC Davis for analysis.
Pain and function were assessed by a questionnaire answered by blinded technicians based on observation of study animals housed at InterVivo. The survey was adapted from the canine brief pain inventory (CBPI), which was developed based on clinical questionnaires in which owners score the function and pain level of their pets with existing pain conditions ([Brown et al., 2007]). Modifications to the questionnaire attempted to account for differences between owner pain evaluation of pets and pain evaluation of laboratory dogs by technical staff. For survey administration, blinded technicians attempted to elicit objective behavior-specific measures of function and pain level across a variety of normal canine behaviors (e.g., walking, trotting, galloping, rearing, and stair-climbing, etc.). For this, one technician was responsible for soliciting the relevant behaviors from a dog using encouragement and/or food rewards, while the evaluating technician scored function and observable pain using the modified CBPI questionnaire. Subjects were tested daily on Days -7 through -3, to develop baseline scores, and again on Days 1 through 5 administered 1.5 h after dosing. Dosing occurred in the morning, and observations were recorded 1.5 h after dosing, to limit time-of-day variability. Questions are listed in Supplementary Table S3. Animals in treatment groups had blood and synovial fluid collected ∼2 h after the last dose on day 5 (immediately following the study questionnaire) to confirm plasma concentrations in treated animals. Full pharmacokinetic assessments were collected from a satellite group of animals so as not to interfere with pain assessment.

[2] = PK analysis in satellite dogs; format: in vivo, dog; settings: for half-life / AUC(0-t) / Cmax: whole blood; for AUC(0-t) / Cmax: po
Method: as §1
For PK analysis in the satellite group, individual parameters were calculated by fitting blood concentrations to a non-compartmental analysis using Kinetica software (Thermo Fisher Scientific version 5.1). Using the log-linear trapezoidal method, the area under the curve were calculated and were extrapolated to infinity using the last measured plasma concentration (Clast), defined as the timepoint collected 72 h after the last dose or 8 hr after the first dose on day 1, divided by the terminal slope (λz).

aged beagle dogs with OA = test: Tolerability, adverse events and body weight in the dog study; format: in vivo
Method: The study was conducted as a blinded, parallel matched-group design. Dogs were randomized into groups based on pretreatment pain scores and each group was randomly assigned a treatment. Prior to randomization, each dog was assessed for arthritis by radiograph to assess the severity of OA by presence of osteophytes, subchondral sclerosis or joint effusion each scored on a scale of 0 (least) to 3 (worst) for each of 12 joints. Severity of the radiograph score was included in the randomization protocol and distributed between the groups, and there were no statistical differences between the averages of each group. Individual radiograph scores can be found in Supplementary Table S2. […] Vehicle group consisted of 5 mL PEG300 in capsule. Concurrent medications were not allowed and not needed during the study.

Microsomal stability = format: in vitro ADME, dog; settings: 60 min, 37°C
Method: Male and female dog liver microsomes (Xenotech) were diluted in potassium phosphate buffer (0.1M, pH 7.4), MgCl2 (3.15 mM), and sodium EDTA (1.05 mM) to a final protein concentration of 1 mg/mL. Compounds were added at 0.1 mM in methanol at 1% and microsomes were activated with 5% (v/v) NADPH regenerating system (100 μL sodium phosphate buffer (0.1M, pH 7.4), 50 μL, glucose-6-phosphate in sodium phosphate buffer (0.1M, pH 7.4), 50 μL NADP+ in sodium phosphate (0.1M, pH 7.4), and 50 μL of 100 Units/mL of […]). […] Compounds were incubated without microsomes or NADPH as negative controls.

Solubility of sEHI = format: physicochemical
Method: […] The non-dissolved compounds were filtered through a 0.22 μm centrifuge filter at 40°C and the supernatant was further diluted 10 times with methanol. The samples were analyzed by LC/MS-MS.

[3] = female, beagle, dog, 1 mg/kg, dosed EC3039 1 mg/kg oral qd, female dog, Day 1, detected EC3039, blood
[4] = female, beagle, dog, 1 mg/kg, dosed EC3039 1 mg/kg oral qd, female dog, Day 5, detected EC3039, blood
[5] = female, beagle, dog, 5 mg/kg, dosed EC3039 5 mg/kg oral qd, female dog, Day 1, detected EC3039, blood
[6] = female, beagle, dog, 5 mg/kg, dosed EC3039 5 mg/kg oral qd, female dog, Day 5, detected EC3039, blood
[7] = male, beagle, dog, 1 mg/kg, dosed EC3039 1 mg/kg oral qd, male dog, Day 1, detected EC3039, blood
[8] = male, beagle, dog, 1 mg/kg, dosed EC3039 1 mg/kg oral qd, male dog, Day 5, detected EC3039, blood
[9] = male, beagle, dog, 5 mg/kg, dosed EC3039 5 mg/kg oral qd, male dog, Day 1, detected EC3039, blood

CN(C(=O)N[C@H]1CC[C@H](Oc2ccc(C(=O)O)cc2)CC1)c1ccc(OC(F)(F)F)cc1 [EC3039, trans-4-{4-[3-methyl-3-(4-trifluoromethoxy-phenyl)-ureido]-cyclohexyloxy}-benzoic acid]
Blood concentration D5 ([1]; dosed EC3039 1 mg/kg, 1 mg/kg): 126 ng/mL and 176 ng/mL and 5340 ng/mL and 347 ng/mL and 346 ng/mL and 81 ng/mL and 408 ng/mL and 328 ng/mL
Synovial fluid concentration D1 ([1]; dosed EC3039 1 mg/kg, 1 mg/kg): 1220 ng/mL and 2710 ng/mL and 4100 ng/mL and 3350 ng/mL and 3100 ng/mL and 1390 ng/mL and 3430 ng/mL and 2100 ng/mL
Synovial fluid concentration D5 ([1]; dosed EC3039 1 mg/kg, 1 mg/kg): 1630 ng/mL and 1480 ng/mL and 11900 ng/mL and 1840 ng/mL and 1440 ng/mL and 586 ng/mL and 2190 ng/mL and 1930 ng/mL
Blood concentration D5 ([1]; dosed EC3039 5 mg/kg, 5 mg/kg): 859 ng/mL and 672 ng/mL and 5550 ng/mL and 6250 ng/mL and 722 ng/mL and 6190 ng/mL and 5650 ng/mL and 929 ng/mL
Synovial fluid concentration D1 ([1]; dosed EC3039 5 mg/kg, 5 mg/kg): 5850 ng/mL and 13570 ng/mL and 14290 ng/mL and 14240 ng/mL and 5220 ng/mL and 14300 ng/mL and 14700 ng/mL and 9520 ng/mL
Synovial fluid concentration D5 ([1]; dosed EC3039 5 mg/kg, 5 mg/kg): 5830 ng/mL and 4640 ng/mL and 9960 ng/mL and 12400 ng/mL and 16100 ng/mL and 11700 ng/mL and 5960 ng/mL
sEHI in blood and synovial fluid relative to dogs treated with EC1728 ([1]; high dose group (5 mg/kg)): ~10 ×
sEHI in blood and synovial fluid relative to dogs treated with EC1728 ([1]; low dose group (1 mg/kg)): approximately 2 ×
EC3039 in blood of dogs administered EC1728 ([2]; EC1728 at 1 mg/kg or 5 mg/kg): no detectable amounts
blood concentrations relative to IC50 for sEH ([2]; all treatment groups, duration of the study): exceeded the IC50
fold increase in AUC after fivefold increase in dose ([2]; beagle, dog, in vivo): ~18 fold
fold increase in Cmax after fivefold increase in dose ([2]; beagle, dog, in vivo): 30 to 40 fold
half-life ([2]; beagle, dog, oral, satellite dogs, range over both compounds, Table 3, read-out: half-life): 24 to 40 h
half-life ([2]; beagle, dosed EC3039 1 mg/kg oral qd, female dog, Day 5, detected EC3039, blood, read-out: T1/2 (converted)): 40 h
half-life ([2]; beagle, dosed EC3039 1 mg/kg oral qd, male dog, Day 5, detected EC3039, blood, read-out: T1/2 (converted)): 33 h
half-life ([2]; beagle, dosed EC3039 5 mg/kg oral qd, female dog, Day 5, detected EC3039, blood, read-out: T1/2 (converted)): 25 h
half-life ([2]; beagle, dosed EC3039 5 mg/kg oral qd, male dog, Day 5, detected EC3039, blood, read-out: T1/2 (converted)): 27 h
portion metabolized by demethylation to form EC1728 ([2]; dogs dosed EC3039): < 10%
AUC(0-t) [2, 3]: 3940 ng·h/mL
Cmax [2, 3]: 568 ng/mL
AUC(0-t) [2, 4]: 361000 ng·h/mL
Cmax [2, 4]: 17300 ng/mL
AUC(0-t) [2, 5]: 67200 ng·h/mL
Cmax [2, 5]: 18000 ng/mL
AUC(0-t) [2, 6]: 589000 ng·h/mL
Cmax [2, 6]: 30900 ng/mL
AUC(0-t) [2, 7]: 2490 ng·h/mL
Cmax [2, 7]: 400 ng/mL
AUC(0-t) [2, 8]: 72100 ng·h/mL
Cmax [2, 8]: 2300 ng/mL
AUC(0-t) [2, 9]: 46500 ng·h/mL
Cmax [2, 9]: 16900 ng/mL
Cmax ([2]; male, beagle, dog, 5 mg/kg, dosed EC3039 5 mg/kg oral qd, male dog, Day 5, detected EC3039, blood): 32100 ng/mL
health case noted during treatment: relation to treatment (aged beagle dogs with OA; EC3039 1 mg/kg, individual dogs, 1 mg/kg): EC3039 – 1mg/kg / Not Related; also recorded: EC3039 – 1mg/kg / Unlikely Related
health case noted during treatment: relation to treatment (aged beagle dogs with OA; EC3039 5 mg/kg, individual dog, moist dermatitis of ventral neck): EC3039 – 5mg/kg / Not Related
% Parent + NADPH (Microsomal stability; female dog liver microsomes): 85% and 85 ± 2%
% Parent − NADPH (Microsomal stability; female dog liver microsomes): 93 ± 5%
% Parent − NADPH (Microsomal stability; male dog liver microsomes): 97 ± 4%
melting point: 92.4 to 94.7 °C
solubility (Solubility of sEHI; PEG300, organic solvent or mixture): 99 ± 1 mg/mL (≈ 219 mM)
solubility at 24 h (Solubility of sEHI; aqueous buffer, thermodynamic from solid, PBS pH 7.4, 40°C, 24 h): 0.13 ± 0.015 mg/mL (≈ 0.287 mM)
